Experimental data taken from patent publication US9655862B2, “Ocular nanoformulation and method of use in angiogenesis-mediated disorders” (priority 2013, dated 2017).
Entries after “also recorded” stand apart in the source; their conditions may differ.

Key:
[1] = tested on: neovascularization secondary to ROP; conditions: intravitreal injection; cited from earlier work
[2] = tested on: Neovascularization-mediated by VEGF+FGF2; assay: Chick chorioallantoic membrane (CAM) model of angiogenesis; assay type: in vivo; conditions: VEGF and FGF2 at 1 μg/ml each, SNACH 2 ug/CAM, 3-day incubation
Experimental: The effect of SNACH on Neovascularization-mediated by VEGF+FGF2 was examined in the CAM model. Briefly, ten-day old chick embryos were purchased from Spafas, Inc. (Preston, Conn.) and incubated at 37° C. with 55% relative humidity. A hypodermic needle was used to make a small hole in the shell at the air sac and a second hole will be made on the broadside of the egg, directly over an avascular portion of the embryonic membrane that will be identified by candling. A false air sac was created beneath the second hole by the application of negative pressure at the first hole, causing the CAM to separate from the shell. A window, approximately 1.0 cm^2, was cut in the shell over the dropped CAM with a small crafts grinding wheel (Dremel, Division of Emerson Electric Co., Racine, Wis.), allowing direct access to the underlying CAM. […] Digital images of CAM sections exposed to filters were collected, using a 3-CCD color video camera system (Toshiba America, New York, N.Y.), and analyzed with Image-Pro software (Media Cybernetics, Silver Spring, Md.). The numbers of vessel branch points contained in a circular region equal to the area of each filter disk were counted. One image were counted in each CAM preparation, and findings from 6-8 CAM preparations/group were analyzed for each treatment condition.

[3] = tested on: retinal neovascularization; assay: Oxygen-induced retinopathy mouse model (retinopathy of prematurity), retinal neovascularization; assay type: in vivo
Experimental: SNACH and SNACH Nanoparticles (1 mg/kg) in PBS at pH 7-7.5, Control: PBS at 1 mg/ml on postnatal day 12 and 15, Mode of Administration: Intraperitoneal or eye drops.
An animal model of a mice model was used. The mice model used was the Oxygen-induced retinopathy mouse model as described by Smith L E, W. E., McLellan A, Kostyk S K, D'Amato R, Sullivan R, D'Amore P A. (1994), “Oxygen-induced retinopathy in the mouse”, Invest Ophthalmol Vis Sci 35(1): 101-111.
The neonatal mice were exposed to hyperoxic conditions for 5 days, beginning at age p7 for the pups and continuing through p12 when they are returned to normal oxygen atmosphere (8-10 animals/group). Treatment group SNACH at 1 mg/kg administered IP or eye drops at two separate doses one at P12 and the other at P15. Day 17 animals were scarified and eyes removed for retinal Neovascularization evaluation. The removed eyes were stained with H&E stain. Additionally in upcoming study 3 additional animals per group were used for ocular tissue levels of SNACH after SNACH administration by LC/MS/MS.
Induction of oxygen-induced retinopathy in mouse model, in accordance with embodiments of the present invention. […]

[4] = tested on: choroidal neovascular membranes; conditions: wet AMD, Phase 3 clinical trials; cited from earlier work

bevacizumab
regression of neovascularization secondary to ROP [1]: regression of neovascularization

sulfated non-anticoagulant heparin [SNACH]
inhibition of angiogenesis induced by VEGF and FGF2 [2]: maximal inhibition of angiogenesis; also recorded: potent angiogenesis inhibitors | neovascular regression in ROP mice model ([3]; ROP mice): causes neovascular regression | inhibition of retinal neovascularization (mean total area of neovascularization) ([3]; neonatal mouse, 1.0 mg/kg, IP on day 12 and 15): 60-70%

B1: ranibizumab (antibody, chains of the INN, looked up, V domains shown)
VH: EVQLVESGGGLVQPGGSLRLSCAASGYDFTHYGMNWVRQAPGKGLEWVGWINTYTGEPTYAADFKRRFTFSLDTSKSTAYLQMNSLRAEDTAVYYCAKYPYYYGTSHWYFDVWGQGTLVTVSS
VL: DIQLTQSPSSLSASVGDRVTITCSASQDISNYLNWYQQKPGKAPKVLIYFTSSLHSGVPSRFSGSGSGTDFTLTISSLQPEDFATYYCQQYSTVPWTFGQGTKVEIK
modifications: Fab
notes: anti-VEGF pharmacotherapy (Lucentis, Genentech)
regression of choroidal neovascular membranes [4]: regression of choroidal neovascular membranes
